Measurements published in patent US20250230193A1, “CYCLIC COMPOUND HAVING SELECTIVE KRAS INHIBITORY EFFECT ON HRAS AND NRAS” (CHUGAI SEIYAKU KABUSHIKI KAISHA, priority 2022, published 2025).
Where a SMILES comes first, the peptide text is derived from it. Bridges are numbered along the chain shown (N, C = ends). [ ]: non-standard residue; d: D form. The star is where a group is joined. hPhe(3-Cl-4-CF3) = N[C@@H](CCc1ccc(C(F)(F)F)c(Cl)c1)C(=O)O; NMePhe(4-Me) = CN[C@@H](Cc1ccc(C)cc1)C(=O)O; NMeGly(cPent) = CN[C@H](C(=O)O)C1CCCC1; NMeD = CN[C@@H](CC(=O)O)C(=O)O; NMeL = CN[C@@H](CC(C)C)C(=O)O; Morpholide = C1CN(*)CCO1; NMeA = CN[C@@H](C)C(=O)O; Ac5c = NC1(C(=O)O)CCCC1; Aze = O=C(O)[C@@H]1CCN1; Sar = CNCC(=O)O

Legend:
[1] = biological target: GDP-bound NRAS wild-type protein (Homo sapiens, UniProt P01111); experiment: Binding to NRAS by surface plasmon resonance (SPR), Single Cycle Kinetics; conditions: for NRAS/KRAS (ratio of KD for GDP-bound NRAS wild-type to KD for KRAS) / NRAS/KRAS (ratio of KD value with respect to NRAS to KD value with respect to KRAS): SPR; for NRAS/KRAS (ratio of KD value with respect to NRAS to KD value with respect to KRAS): GDP-bound NRAS wild-type vs GDP-bound KRAS wild-type; for NRAS/KRAS (ratio of KD value with respect to GDP-bound NRAS wild-type protein to KD value with respect to KRAS): class symbols
Chain of GDP-bound NRAS wild-type protein (P01111 whole entry): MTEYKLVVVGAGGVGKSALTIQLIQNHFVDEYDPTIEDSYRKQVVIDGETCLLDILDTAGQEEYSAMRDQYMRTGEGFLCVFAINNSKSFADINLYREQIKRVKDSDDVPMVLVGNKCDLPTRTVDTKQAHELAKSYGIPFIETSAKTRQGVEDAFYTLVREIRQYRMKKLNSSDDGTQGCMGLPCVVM

[2] = biological target: GDP-bound HRAS wild-type protein (Homo sapiens, UniProt P01112); experiment: Binding to HRAS by surface plasmon resonance (SPR), Single Cycle Kinetics
Chain of GDP-bound HRAS wild-type protein (P01112 whole entry): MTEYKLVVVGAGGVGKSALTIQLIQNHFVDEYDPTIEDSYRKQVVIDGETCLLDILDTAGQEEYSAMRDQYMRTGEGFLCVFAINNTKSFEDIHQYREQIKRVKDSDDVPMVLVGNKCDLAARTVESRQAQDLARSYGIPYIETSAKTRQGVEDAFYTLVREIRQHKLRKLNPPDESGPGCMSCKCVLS

[3] = KD ratio, GDP-bound HRAS wild-type vs GDP-bound KRAS wild-type, SPR
[4] = SPR, GDP-bound HRAS wild-type vs GDP-bound KRAS wild-type
[5] = SPR, GDP-bound wild-type proteins

CCCN1C(=O)[C@@H]2CCN2C(=O)[C@H](C)N(C)C(=O)[C@H]([C@@H](C)CC)NC(=O)[C@H](CC(C)C)N(C)C(=O)C[C@@H](C(=O)N2CCOCC2)N(C)C(=O)[C@H](C2CCCC2)N(C)C(=O)C2(CCCC2)NC(=O)[C@@H]2C[C@H](O)CN2C(=O)[C@H](CCc2ccc(C(F)(F)F)c(Cl)c2)NC(=O)CN(C)C(=O)[C@@H]1Cc1ccc(C(F)(F)F)cc1 (stereo in doubt) [PP0238]
NRAS/KRAS (ratio of KD for GDP-bound NRAS wild-type to KD for KRAS) [1]: C (A compound having a KD ratio of 0.1 or more and less than 3 is denoted as C) | HRAS/KRAS (ratio of KD for GDP-bound HRAS wild-type to KD for KRAS) ([2]; SPR): C (A compound having a KD ratio of 0.1 or more and less than 3 is denoted as C)

CC[C@H](C)[C@@H]1NC(=O)[C@H](CC(C)C)N(C)C(=O)C[C@@H](C(=O)N2CCOCC2)N(C)C(=O)[C@H](C2CCCC2)N(C)C(=O)C2(CCCC2)NC(=O)[C@@H]2CCCN2C(=O)[C@H](CCc2ccc(C(F)(F)F)c(Cl)c2)NC(=O)CN(C)C(=O)[C@H](Cc2ccc(C(F)(F)F)cc2)N2CCCCC[C@@H](C2=O)N(C)C(=O)CN(C)C1=O (stereo in doubt) [PP0319]
NRAS/KRAS (ratio of KD for GDP-bound NRAS wild-type to KD for KRAS) [1]: B (a compound having 3 or more and less than 10 is denoted as B) | HRAS/KRAS (ratio of KD for GDP-bound HRAS wild-type to KD for KRAS) ([2]; SPR): B (a compound having 3 or more and less than 10 is denoted as B)

CCO[C@@H]1C[C@H]2C(=O)NC3(CCC3)C(=O)N(C)[C@@H](C3CCCC3)C(=O)N(C)[C@H](C(=O)N(C)C)CC(=O)N(C)[C@@H](CC)C(=O)N[C@@H]([C@@H](C)CC)C(=O)N(C)CC(=O)N(C)[C@H]3CCCCCN(C3=O)[C@@H](Cc3ccc(C(F)(F)F)cc3)C(=O)N(C)CC(=O)N[C@@H](CCc3ccc(C(F)(F)F)c(C)c3)C(=O)N2C1 (stereo in doubt) [PP0883]
NRAS/KRAS (ratio of KD value with respect to NRAS to KD value with respect to KRAS) ([1]; KD ratio): B (a compound having 3 or more and less than 10 is denoted as B) | HRAS/KRAS (ratio of KD value with respect to HRAS to KD value with respect to KRAS) [2, 3]: B (a compound having 3 or more and less than 10 is denoted as B)

CCC(CC)[C@H]1C(=O)N(C)[C@H](C(=O)N(C)C)CC(=O)N(C)[C@@H](COC)C(=O)N[C@@H]([C@@H](C)CC)C(=O)N(C2CC2)CC(=O)N(C)[C@H]2C/C=C\CCN(C2=O)[C@@H](Cc2ccc(C)cc2)C(=O)N(C)CC(=O)N[C@@H](CCc2ccc(Cl)c(Cl)c2)C(=O)N2C[C@H](OC(C)C)C[C@H]2C(=O)NC2(CC(C)(C)C2)C(=O)N1C (stereo in doubt) [PP2509]
NRAS/KRAS (ratio of KD value with respect to NRAS to KD value with respect to KRAS) [1]: AA (a compound having 20 or more is denoted as AA) | HRAS/KRAS (ratio of KD value with respect to HRAS to KD value with respect to KRAS) [2, 4]: A (a compound having 10 or more and less than 20 is denoted as A)

CCC[C@H]1C(=O)N[C@H]([C@@H](C)CC)C(=O)N2C[C@@H](OC)C[C@H]2C(=O)N(C)[C@H]2C/C=C\CCN(C2=O)[C@@H](Cc2ccc(C)cc2)C(=O)N(C)CC(=O)N[C@@H](CCc2ccc(C(F)(F)F)c(Cl)c2)C(=O)N2C[C@H](OCC)C[C@H]2C(=O)NC2(CCC2)C(=O)N(C)[C@@H](C2CCCC2)C(=O)N(C)[C@H](C(=O)N(C)C)CC(=O)N1C (stereo in doubt) [PP2552]
NRAS/KRAS (ratio of KD value with respect to GDP-bound NRAS wild-type protein to KD value with respect to KRAS) [1]: A (a compound having 10 or more and less than 20 is denoted as A) | HRAS/KRAS (ratio of KD value with respect to GDP-bound HRAS wild-type protein to KD value with respect to KRAS) ([2]; class symbols): B (a compound having 3 or more and less than 10 is denoted as B)

CCOC[C@H]1C(=O)N[C@@H]([C@@H](C)CC)C(=O)N(C2CC2)CC(=O)N(C)[C@@H]2C/C=C\CCN(C2=O)[C@@H](Cc2ccc(C)cc2)C(=O)N(C)CC(=O)N[C@@H](CCc2ccc(C(F)(F)F)c(OC)c2)C(=O)N2C[C@H](OCC)C[C@@H]2C(=O)NC2(CC(C)(C)C2)C(=O)N(C)[C@H](CC2CCC2)C(=O)N(C)[C@H](C(=O)N(C)C)CC(=O)N1C (stereo in doubt) [PP2760]
NRAS/KRAS (ratio of KD value with respect to GDP-bound NRAS wild-type protein to KD value with respect to KRAS) [1]: A (a compound having 10 or more and less than 20 is denoted as A) | HRAS/KRAS (ratio of KD value with respect to GDP-bound HRAS wild-type protein to KD value with respect to KRAS) ([2]; class symbols): B (a compound having 3 or more and less than 10 is denoted as B)

CCC[C@H]1C(=O)N[C@H]([C@@H](C)CC)C(=O)N(C)CC(=O)N(C)[C@H]2C/C=C\CCN(C2=O)[C@@H](Cc2ccc(C)cc2)C(=O)N(C)CC(=O)N[C@@H](CCc2cc(F)c(C(F)F)c(F)c2)C(=O)N2C[C@H](OCC)C[C@H]2C(=O)NC2(CC(C)(C)C2)C(=O)N(C)[C@@H](C(CC)CC)C(=O)N(C)[C@H](C(=O)N(C)C)CC(=O)N1C (stereo in doubt) [PP2783]
NRAS/KRAS (ratio of KD value with respect to GDP-bound NRAS wild-type protein to KD value with respect to KRAS) [1]: A (a compound having 10 or more and less than 20 is denoted as A) | HRAS/KRAS (ratio of KD value with respect to GDP-bound HRAS wild-type protein to KD value with respect to KRAS) ([2]; class symbols): A (a compound having 10 or more and less than 20 is denoted as A)

CC[C@H](C)[C@@H]1NC(=O)[C@H](CC(C)C)N(C)C(=O)C[C@@H](C(=O)N2CCOCC2)N(C)C(=O)[C@H](C2CCCC2)N(C)C(=O)C2(CCCC2)NC(=O)[C@@H]2CCCN2C(=O)[C@H](CCc2ccc(C(F)(F)F)c(Cl)c2)NC(=O)CN(C)C(=O)[C@H](Cc2ccc(C)cc2)N(C)C(=O)[C@@H]2CCN2C(=O)[C@H](C)N(C)C1=O [PP0001] ([NMeL]I[NMeA][Aze][NMePhe(4-Me)][Sar][hPhe(3-Cl-4-CF3)]P[Ac5c][NMeGly(cPent)][NMeD]-Morpholide; lactam N-11)
NRAS/KRAS (ratio of KD for GDP-bound NRAS wild-type to KD for KRAS) [1]: C (A compound having a KD ratio of 0.1 or more and less than 3 is denoted as C) | HRAS/KRAS (ratio of KD for GDP-bound HRAS wild-type to KD for KRAS) ([2]; SPR): C (A compound having a KD ratio of 0.1 or more and less than 3 is denoted as C)

CCO[C@@H]1C[C@H]2C(=O)NC3(CC(C)(C)C3)C(=O)N(C)[C@@H](C3CCCC3)C(=O)N(C)[C@H](C(=O)N(C)CC)CC(=O)N(C)[C@@H](C3CCC3)C(=O)N[C@@H]([C@@H](C)CC)C(=O)N(C)CC(=O)N(C)[C@H]3C/C=C\CCN(C3=O)[C@@H](Cc3ccc(C(F)(F)F)cc3)C(=O)N(C)CC(=O)N[C@@H](CCc3ccc(C(F)(F)F)c(OC)c3)C(=O)N2C1 [PP1985]
HRAS/KRAS (ratio of KD value for HRAS to KD value for KRAS) [2, 3]: B (a compound having 3 or more and less than 10 is denoted as B)

CCC(CC)[C@H]1C(=O)N(C)[C@H](C(=O)N(C)C)CC(=O)N(C)[C@@H](COC)C(=O)N[C@@H]([C@@H](C)CC)C(=O)N(C2CC2)CC(=O)N(C)[C@H]2C/C=C\CCN(C2=O)[C@@H](CC2CCCCC2)C(=O)N(C)CC(=O)N[C@@H](CCc2ccc(Cl)c(Cl)c2)C(=O)N2C[C@H](OC(C)C)C[C@H]2C(=O)NC2(CC(C)(C)C2)C(=O)N1C [PP2517]
HRAS/KRAS (ratio of KD value with respect to HRAS to KD value with respect to KRAS) [2, 4]: A (a compound having 10 or more and less than 20 is denoted as A)

CCC[C@H]1C(=O)N[C@@H](CC(C)C)C(=O)N(C2CC2)CC(=O)N(C)[C@H]2C/C=C\CCN(C2=O)[C@@H](Cc2ccc(C)cc2)C(=O)N(C)CC(=O)N[C@@H](CCc2ccc(C(F)(F)F)c(Cl)c2)C(=O)N2C[C@H](OCC)C[C@H]2C(=O)NC2(CCC2)C(=O)N(C)[C@@H](C2CCCC2)C(=O)N(C)[C@H](C(=O)N(C)C)CC(=O)N1C [PP2543]
HRAS/KRAS (ratio of KD value with respect to GDP-bound HRAS wild-type protein to KD value with respect to KRAS) ([2]; class symbols): B (a compound having 3 or more and less than 10 is denoted as B)

CC[C@H](C)[C@@H]1NC(=O)[C@H](COC)N(C)C(=O)C[C@@H](C(=O)N2CCCCC2)N(C)C(=O)[C@H](C2CCCC2)N(C)C(=O)C2(CC(C)(C)C2)NC(=O)[C@@H]2C[C@@H](OC(C)C)CN2C(=O)[C@H](CCc2cc(F)c(C(F)(F)F)c(F)c2)NC(=O)CN(C)C(=O)[C@H](Cc2ccc(C(F)(F)F)cc2)N2CC/C=C\C[C@@H](C2=O)N(C)C(=O)CN(C)C1=O [PP2663]
HRAS/KRAS (ratio of KD value with respect to GDP-bound HRAS wild-type protein to KD value with respect to KRAS) ([2]; class symbols): A (a compound having 10 or more and less than 20 is denoted as A)

CCC[C@H]1C(=O)N[C@@H]([C@@H](C)CC)C(=O)N(C)CC(=O)N(C)[C@H]2C/C=C\CCN(C2=O)[C@@H](Cc2ccc(C)cc2)C(=O)N(C)CC(=O)N[C@@H](CCc2ccc(Cl)c(OC)c2)C(=O)N2C[C@H](OCC)C[C@H]2C(=O)NC2(CC(C)(C)C2)C(=O)N(C)[C@@H](C(CC)CC)C(=O)N(C)[C@H](C(=O)N(C)C)CC(=O)N1C [PP2791]
HRAS/KRAS (ratio of KD value with respect to GDP-bound HRAS wild-type protein to KD value with respect to KRAS) ([2]; class symbols): A (a compound having 10 or more and less than 20 is denoted as A)

CCO[C@@H]1C[C@H]2C(=O)NC3(CC(C)(C)C3)C(=O)N(C)[C@@H](C3CCCC3)C(=O)N(C)[C@H](C(=O)N(C)C)CC(=O)N(C)[C@H]3CCCCCCc4ccc(cc4)C[C@@H](C(=O)N(C)CC(=O)N[C@@H](CCc4ccc(C(F)(F)F)c(OC)c4)C(=O)N2C1)N1CC/C=C\C[C@@H](C1=O)N(C)C(=O)CN(C1CC1)C(=O)[C@H]([C@@H](C)CC)NC3=O [PP3070]
HRAS/KRAS (ratio of KD value with respect to GDP-bound HRAS wild-type protein to KD value with respect to KRAS) [2, 5]: B (a compound having 3 or more and less than 10 is denoted as B)

CCC[C@H]1C(=O)N[C@@H]([C@@H](C)CC)C(=O)N(C)CC(=O)N(C)[C@H]2C/C=C\CCN(C2=O)[C@@H](Cc2ccc(C(F)(F)F)cc2)C(=O)N(C)CC(=O)N[C@@H](CCc2ccc(C(F)(F)F)c(OC)c2)C(=O)N2C[C@H](OCC)C[C@H]2C(=O)N(C)C2(CCC2)C(=O)N(C)[C@@H](C2CCCC2)C(=O)N(C)[C@H](C(=O)N2CCCCC2)CC(=O)N1C [PP3103, (2S,8S,12R,14S,20S,23S,27S,30S,36S,38Z)-20-cyclopentyl-12-ethoxy-8-[2-[3-methoxy-4-(trifluoromethyl)phenyl]ethyl]-4,16,19,22,26,32,35-heptamethyl-30-[(1S)-1-methylpropyl]-23-(piperidine-1-carbonyl)-27-propyl-2-[[4-(trifluoromethyl)phenyl]methyl]spiro[1,4,7,10,16,19,22,26,29,32,35-undecazatricyclo[34.5.1.0^10,14]dotetracont-38-ene-17,1′-cyclobutane]-3,6,9,15,18,21,25,28,31,34,42-undecone]
HRAS/KRAS (ratio of KD value with respect to GDP-bound HRAS wild-type protein to KD value with respect to KRAS) [2, 5]: A (a compound having 10 or more and less than 20 is denoted as A)
